pIC50: −log10 of the molar value.
How the values were obtained:
[1] = molecular target: T1, MMP-1FL (full length interstitial collagenase) (Homo sapiens, UniProt P03956); assay: Thiopeptolide substrate hydrolysis assay, MMP-1FL; type: biochemical; details: HEPES pH 7.0, 22° C.
T1 sequence (P03956 100-469): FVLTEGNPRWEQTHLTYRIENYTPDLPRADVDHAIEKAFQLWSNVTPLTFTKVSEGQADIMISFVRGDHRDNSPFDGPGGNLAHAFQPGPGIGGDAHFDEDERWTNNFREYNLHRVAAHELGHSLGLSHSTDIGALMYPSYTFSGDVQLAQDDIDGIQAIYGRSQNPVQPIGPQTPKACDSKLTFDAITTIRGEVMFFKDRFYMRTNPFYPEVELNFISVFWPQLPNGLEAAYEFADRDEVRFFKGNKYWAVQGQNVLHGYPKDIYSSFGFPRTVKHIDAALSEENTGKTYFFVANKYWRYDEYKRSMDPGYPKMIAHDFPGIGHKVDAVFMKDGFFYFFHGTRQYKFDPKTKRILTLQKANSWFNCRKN
Description: Several representative compounds have been evaluated for their ability to inhibit various matrix metalloproteinase enzymes.

[2] = molecular target: MMP-13CD (catalytic domain of collagenase-3) (Homo sapiens, UniProt P45452); assay: Thiopeptolide substrate hydrolysis assay, MMP-13CD; type: biochemical; details: HEPES pH 7.0, 22° C.
Description: The assays measure the amount by which a test compound reduces the hydrolysis of a thiopeptolide substrate caused by a matrix metalloproteinase enzyme.
Thiopeptolide substrates show virtually no decomposition or hydrolysis in the absence of a matrix metalloproteinase enzyme. A typical thiopeptolide substrate commonly utilized for assays is Ac-Pro-Leu-Gly-thioester-Leu-Leu-Gly-OEt. A 100-μL assay mixture will contain 50 mM of N-2-hydroxyethylpiperazine-N′-2-ethanesulfonic acid (“HEPES,” pH 7.0), 10 mM CaCl2, 100 μM thiopeptolide substrate, and 1 mM 5,5′-dithio-bis-(2-nitro-benzoic acid) (DTNB). […] Assays are carried out with and without matrix metalloproteinase inhibitor compounds, and the amount of hydrolysis is compared for a determination of inhibitory activity of the test compounds.

[3] = molecular target: MMP-3CD (catalytic domain of stromelysin-1) (Homo sapiens, UniProt P08254); assay: Thiopeptolide substrate hydrolysis assay, MMP-3CD; type: biochemical; details: 50 mM MES pH 6.0
Description: It should be appreciated that the assay buffer used with MMP-3CD was 50 mM N-morpholinoethanesulfonate (“MES”) at pH 6.0 rather than the HEPES buffer at pH 7.0 described above.

MMP-3CD (catalytic domain of stromelysin-1), sequence (P08254 100-272 limits assumed): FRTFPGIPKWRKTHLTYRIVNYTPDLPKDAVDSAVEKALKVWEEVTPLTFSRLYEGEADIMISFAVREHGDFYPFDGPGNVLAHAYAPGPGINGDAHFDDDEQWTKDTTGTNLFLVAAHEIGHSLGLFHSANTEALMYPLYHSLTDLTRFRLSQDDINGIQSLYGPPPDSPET

Row | Molecule | pIC50 [1] | pIC50 [2] | pIC50 [3] | melting point [°C]
1 | O=C(OCc1ccc2nsnc2c1)c1cccc(C(=O)OCc2ccc3nsnc3c2)c1 [Example 3, Isophthalic acid di-(2,1,3-benzothiadiazol-5-yl)methyl ester] | < 4.00 |  | < 4.52 | 
2 | COc1ccc(C(=O)OCc2ccncc2)cc1C(=O)OCc1ccncc1 [Example 5, 4-Methoxy-isophthalic acid dipyridin-4-ylmethyl ester] | < 4.00 | 6.59 | < 4.00 | 
3 | COc1ccc(COC(=O)c2cccc(C(=O)OCc3ccc(OC)cc3)c2)cc1 [Example 12, Isophthalic acid bis-(4-methoxy-benzyl) ester] |  |  |  | 90 to 92
4 | O=C(OCc1ccc2c(c1)OCO2)c1cccc(C(=O)OCc2ccc3c(c2)OCO3)c1 [Example 14, Isophthalic acid bis-(1,3-benzodioxol-5-ylmethyl) ester] |  |  |  | 109 to 110
5 | O=C(NCc1cccc(F)c1)c1cccc(C(=O)NCc2cccc(F)c2)c1 [Example 17, N,N′-Bis-(3-fluoro-benzyl)-isophthalamide] |  |  |  | 138 to 140
6 | O=C(NCc1ccc2c(c1)OCO2)c1cccc(C(=O)NCc2ccc3c(c2)OCO3)c1 [Example 28, N,N′-Bis-1,3-benzodioxol-5-ylmethyl-isophthalamide] | < 4.00 |  |  | 
7 | COc1cccc(CNC(=O)c2cccc(C(=O)NCc3cccc(OC)c3)c2)c1 [Example 30, N,N′-Bis-(3-methoxy-benzyl)-isophthalamide] | < 4.00 |  | < 4.00 | 
8 | COc1ccc(C(=O)OCc2ccc3nsnc3c2)cc1C(=O)OCc1ccc2nsnc2c1 [Example 69, 4-Methoxy-isophthalic acid di-2,1,3-benzothiadiazol-5-ylmethyl ester] | 4.52 |  |  | 

The next lines start with the values.

Row | pIC50 [1] | pIC50 [2] | pIC50 [3] | melting point [°C] | Molecule
9 | < 4.00 | 6.55 | < 4.00 |  | 4-Methoxy-N,N′-bis-(4-methoxy-benzyl)-isophthalamide [Example 24]
10 |  |  |  | 136 to 138 | O=C(NCc1ccc(Cl)cc1)c1cccc(C(=O)NCc2ccc(Cl)cc2)c1 [Example 10, N,N′-Bis-(4-chloro-benzyl)-isophthalamide]
11 |  |  |  | 81 to 82 | O=C(OCc1cccc(F)c1)c1cccc(C(=O)OCc2cccc(F)c2)c1 [Example 11, Isophthalic acid bis-(3-fluoro-benzyl) ester]
12 |  |  |  | 68 to 70 | COc1cccc(COC(=O)c2cccc(C(=O)OCc3cccc(OC)c3)c2)c1 [Example 13, Isophthalic acid bis-(3-methoxy-benzyl) ester]
13 |  |  |  | 175 to 176 | COc1ccc(CNC(=O)c2cccc(C(=O)NCc3ccc(OC)cc3)c2)cc1 [Example 16, N,N′-Bis-(4-methoxy-benzyl)-isophthalamide]
14 |  |  |  | 128 to 130 | O=C(NCc1cccc(Cl)c1)c1cccc(C(=O)NCc2cccc(Cl)c2)c1 [Example 18, N,N′-Bis-(3-chloro-benzyl)-isophthalamide]
15 | < 4.00 |  |  |  | O=C(NCc1ccc2c(c1)OCO2)c1cccc(C(=O)NCc2ccc3c(c2)OCO3)c1 [Example 19, N,N′-Bis-1,3-benzodioxol-5-ylmethyl-isophthalamide]
16 | < 4.00 |  | < 4.00 |  | CCOc1ccc(C(=O)NCc2cccc(OC)c2)cc1C(=O)NCc1cccc(OC)c1 [Example 64, 4-Ethoxy-N′1,N″3-bis-(3-methoxy-benzyl)-isophthalamide]
17 | < 4.00 | 5.56 | < 4.00 |  | N,N′-Bis-(4-methoxy-benzyl)-isophthalamide [Example 39]

From US7214712B2, “Isophthalic acid derivatives as matrix metalloproteinase inhibitors” (Warner-Lambert Company, priority 2001, dated 2007)
